In US6620813B1, “Hydroxamate derivatives of non-steroidal anti-inflammatory drugs” (Medinox, Inc., priority 2002, dated 2003):
Entries after “also recorded” stand apart in the source; their conditions may differ.

How the values were obtained:
Male Lewis rats = test: Adjuvant-induced arthritis: paw volume; format: in vivo, rat; settings: oral daily on days 8-15, day 15, equimolar doses, FIG. 3
Male Sprague-Dawley rats [1] = test: Gastropathy model: total gastric lesions after a single oral dose; format: in vivo, rat
Procedure: Rats were fasted for 18 hours prior to the study. […] Drugs were administered orally as a single dose in the morning and water removed. Two and one-half hours after dosing, rats were injected with 1 ml of 10 mg/ml Evans Blue solution and sacrificed 30 minutes later. Stomachs were removed, placed in weigh boats containing cold PBS, and re-coded with letters to blind the observer. Stomachs were then opened along the greater curvature, any contents removed and then placed flat with the lumen facing up to score blue-stained lesions for gastric toxicity according to the following criteria: First, the number of small rounded lesions were counted followed by measurement of total length of linear lesions of greater than or equal to 2 mm. The two numbers obtained (round lesion number and linear length) were added together to give a total gastropathy score expressed as Total Gastric Lesions.

Male Sprague-Dawley rats [2] = test: Enteropathy model: intestinal erosions and ulcers after oral dosing; settings: diclofenac vs equimolar compound 54, vehicle PEG, FIG. 1
Procedure: Enteropathy: Male Sprague-Dawley rats (150-174 g) were obtained from Harlan. Animals were allowed to acclimatize to the facility for a minimum of 3 days and provided with food and water ad libitium. […] Drugs were administered orally either as a single dose (late morning) or twice daily between 8:00-10:00 and 4:00-5:00 beginning with a morning dose for a total of three days. Groups contained 6-8 animals per treatment. On the fourth day each rat was injected intravenously with 1 ml of a 10 mg/ml solution of Evan's Blue to stain the damaged blood vessels in intestinal erosions and ulcers. Animals were sacrificed 10 to 20 minutes after administration of Evan's Blue. The small intestine was then removed from each rat and placed in a large weigh boat in cold PBS, stored briefly in a refrigerator until boats were re-coded to blind the observer. Each intestinal segment was then opened longitudinally and, using a fiber optic light, scored for erosions and ulceration according to the following criteria:
After Evan's Blue injection, intestinal lesions are seen as shallow lesions that are moderately stained around the edge, but with little to no staining in the middle. The depth of an erosion is sometimes only detectable when the edge of the tissue is lifted to reflect light at a different angle. Erosions are usually small and round or oval, but are sometimes as much as 1-2 mm wide, and as long as 1-2 cm, running along the area of mesenteric attachment. When erosions are elongated, the length is measured in mm and divided by 2; otherwise, the erosions are merely counted individually. Note that some areas of intestinal tissue stain blue, but are not erosions. These tend to be near the mesenteric membrane attachment sites and may represent areas of increased permeability that have not progressed to the extent that cell loss has occurred.
Ulcers: An ulcer is a deep lesion penetrating the muscularis mucosa. It is usually thickened and inflamed. After Evan's Blue injection, ulcers present several different types of appearance. […] All ulcers are quantified by measuring their long dimensions in mm.

For `Cc1csc(=S)n1OC(=O)Cc1ccccc1Nc1c(Cl)cccc1Cl` [Compound 54], which “inhibition of paw volume increase in the uninjected feet (anti-inflammatory activity)” value (Male Lewis rats) is on record?
Its value is “equivalent efficacy to equimolar doses of Diclofenac”.

What about the “gastric lesion formation compared with Diclofenac” value (Male Sprague-Dawley rats [1]; rat model of gastropathy, equivalent doses) of the same compound?
Its value is “significantly less gastric lesion formation”.

And the “less gastric lesion (total length) than an equimolar dose of diclofenac” value (Male Sprague-Dawley rats [1]; rats, oral single dose, relative to equimolar diclofenac, FIG. 2)?
The value was 73%.

And the “total length of intestinal ulcers (ulcerogenic effect / ulcer formation)” value (Male Sprague-Dawley rats [2])?
Its value is “significantly less; also recorded: no ulcerogenic effect”.

`O=C(O)Cc1ccccc1Nc1c(Cl)cccc1Cl` [Diclofenac, diclofenac, reference compound] was tested. Which “total length of intestinal ulcers (ulcerogenic effect / ulcer formation)” value (Male Sprague-Dawley rats [2]) did it give?
The value was “substantial ulceration”.
